# Measurements as given in ChEMBL document CHEMBL4390707, “Synthesis and comparison of substituted 1,2,3-dithiazole and 1,2,3-thiaselenazole as inhibitors of the feline immunodeficiency virus (FIV) nucleocapsid protein as a model for HIV infection” (Bioorg Med Chem Lett, 2019).
# Columns and labels:
# [1] = Cytotoxicity against cat CRFK cells measured after 24 hrs by MTT assay; type: cell-based, Felis catus
# [2] = Therapeutic index, ratio of CC50 for cat FL-4 cells to EC50 for inhibition of nucleocapsin protein in FIV infected in cat FL-4 cells; type: toxicity, cell-based; settings: FL-4 cells (FIV infected for EC50), read-out: Ratio CC50/EC50
# [3] = Inhibition of nucleocapsin protein in FIV infected in cat FL-4 cells assessed as reduction in viral RNA replication measured after 7 days by qRT-PCR analysis; type: cell-based; settings: Feline immunodeficiency virus, FL-4, 168 h
# [4] = Cytotoxicity against cat FL-4 cells measured after 7 days by MTT assay; type: cell-based, Felis catus
SMILES,CC50 at 24 h [1] [µM],selectivity ratio [2],EC50 [3] [µM],CC50 at 168 h [4] [µM]
Clc1c2ssnc-2c2ccccc12,> 100,36.3,1.4,49
CCOC(=O)c1c2nssc-2c(Cl)c1Cl,> 100,11.4,0.31,3.5
CCOC(=O)c1c2n[se]sc-2c(Cl)c1Cl,> 100,61.9,0.082,5.1
N#Cc1c2n[se]sc-2c(Cl)c1Cl,> 100,4.7,3.8,18
Clc1c2s[se]nc-2c2ccccc12,98,4.6,1.2,5.7
ClC1=C2SSN=C2c2ccccc2C(Cl)=C1Cl,> 100,3.1,3,9.3
c1ccc2c(c1)N=C1S[Se]N=C1O2,> 100,24,0.24,5.8
N#Cc1c2nssc-2c(Cl)c1Cl,> 100,26.8,1.5,39
ClC1=C2S[Se]N=C2c2ccccc2C(Cl)=C1Cl,> 100,3.3,0.25,0.83
c1ccc(-c2c3ssnc-3c3ccccc23)cc1,> 100,> 4,25.7,> 100
c1ccc2c(c1)N=C1SSN=C1O2,> 100,14,4,57
c1ccc(-c2c3s[se]nc-3c3ccccc23)cc1,56,194,0.26,50
Clc1c2nssc-2c(Cl)c1Cl,68,3.8,1.6,6.1
Clc1c2n[se]sc-2c(Cl)c1Cl,62,5.4,1.2,6.5
Cc1cn([C@H]2C[C@H](N=[N+]=[N-])[C@@H](CO)O2)c(=O)[nH]c1=O [ZIDOVUDINE],> 100,> 37,2.7,> 100
